The kinase profiling compilation of Christmann-Franck et al. (2016)
One block for each compound: values may come before it.

Legend:
Assay in all cases: radiometric filter-binding kinase assay, Kinase HotSpot
Conditions in all cases: compound 0.5 µM; ATP 10 µM
MAPKAPK2 (human) = MAPKAPK2 (human) (UniProt P49137)
FGFR2 (human) = FGFR2 (human) (UniProt P21802)
PRKCI (human) = PRKCI (human) (UniProt P41743)
STK17A (human) = STK17A (human) (UniProt Q9UEE5)
TXK (human) = TXK (human) (UniProt P42681)
IRAK4 (human) = IRAK4 (human) (UniProt Q9NWZ3)
CDK1 CCNB1 (human) = CDK1 CCNB1 (human) (UniProt P06493+P14635)
NEK4 (human) = NEK4 (human) (UniProt P51957)
PAK2 (human) = PAK2 (human) (UniProt Q13177)
AKT1 (human) = AKT1 (human) (UniProt P31749)
FLT1 (human) = FLT1 (human) (UniProt P17948)
RPS6KA5 KD2 (human) = RPS6KA5 KD2 (human) (UniProt O75582)
ABL2 (human) = ABL2 (human) (UniProt P42684)
NEK9 (human) = NEK9 (human) (UniProt Q8TD19)
AURKA (human) = AURKA (human) (UniProt O14965)
Chain of AURKA (human) (O14965 whole entry, looked up): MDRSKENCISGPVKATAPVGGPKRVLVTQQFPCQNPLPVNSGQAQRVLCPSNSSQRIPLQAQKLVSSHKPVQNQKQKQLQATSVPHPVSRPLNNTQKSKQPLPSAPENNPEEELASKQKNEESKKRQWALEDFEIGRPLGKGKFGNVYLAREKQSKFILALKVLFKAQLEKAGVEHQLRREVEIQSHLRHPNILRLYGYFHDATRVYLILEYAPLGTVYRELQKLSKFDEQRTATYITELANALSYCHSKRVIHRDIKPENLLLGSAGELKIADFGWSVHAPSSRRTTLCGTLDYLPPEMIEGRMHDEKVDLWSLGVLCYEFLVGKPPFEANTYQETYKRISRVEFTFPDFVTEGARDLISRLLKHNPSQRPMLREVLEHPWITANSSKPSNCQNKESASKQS

EPHA8 (human) = EPHA8 (human) (UniProt P29322)
Chain of EPHA8 (human) (P29322 whole entry, looked up): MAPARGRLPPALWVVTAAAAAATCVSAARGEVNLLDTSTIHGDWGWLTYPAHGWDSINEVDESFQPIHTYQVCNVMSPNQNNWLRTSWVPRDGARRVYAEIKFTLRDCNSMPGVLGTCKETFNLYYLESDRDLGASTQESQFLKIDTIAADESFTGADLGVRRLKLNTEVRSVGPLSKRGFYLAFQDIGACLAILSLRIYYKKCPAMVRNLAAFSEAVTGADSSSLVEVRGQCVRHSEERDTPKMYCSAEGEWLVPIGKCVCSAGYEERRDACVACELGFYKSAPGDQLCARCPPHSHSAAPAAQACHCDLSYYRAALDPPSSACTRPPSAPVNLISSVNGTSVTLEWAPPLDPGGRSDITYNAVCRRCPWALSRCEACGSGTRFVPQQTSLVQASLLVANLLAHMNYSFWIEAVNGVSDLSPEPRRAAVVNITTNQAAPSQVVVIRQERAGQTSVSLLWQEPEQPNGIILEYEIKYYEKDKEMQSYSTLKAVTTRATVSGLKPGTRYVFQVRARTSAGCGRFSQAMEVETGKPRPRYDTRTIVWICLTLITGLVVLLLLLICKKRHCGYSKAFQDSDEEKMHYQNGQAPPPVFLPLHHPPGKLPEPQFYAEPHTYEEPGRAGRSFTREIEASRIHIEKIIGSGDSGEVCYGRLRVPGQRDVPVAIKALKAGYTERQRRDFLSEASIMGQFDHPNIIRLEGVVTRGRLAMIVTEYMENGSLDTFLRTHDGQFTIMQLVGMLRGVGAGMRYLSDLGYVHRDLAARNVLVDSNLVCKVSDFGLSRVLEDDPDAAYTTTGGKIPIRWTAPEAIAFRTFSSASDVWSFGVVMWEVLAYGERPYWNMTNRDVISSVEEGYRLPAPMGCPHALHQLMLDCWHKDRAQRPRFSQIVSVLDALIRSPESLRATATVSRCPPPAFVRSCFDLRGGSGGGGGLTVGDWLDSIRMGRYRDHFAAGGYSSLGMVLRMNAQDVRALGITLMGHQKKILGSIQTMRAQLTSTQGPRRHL

DYRK1B (human) = DYRK1B (human) (UniProt Q9Y463)
BTK (human) = BTK (human) (UniProt Q06187)
KDR (human) = KDR (human) (UniProt P35968)
Chain of KDR (human) (P35968 whole entry, looked up): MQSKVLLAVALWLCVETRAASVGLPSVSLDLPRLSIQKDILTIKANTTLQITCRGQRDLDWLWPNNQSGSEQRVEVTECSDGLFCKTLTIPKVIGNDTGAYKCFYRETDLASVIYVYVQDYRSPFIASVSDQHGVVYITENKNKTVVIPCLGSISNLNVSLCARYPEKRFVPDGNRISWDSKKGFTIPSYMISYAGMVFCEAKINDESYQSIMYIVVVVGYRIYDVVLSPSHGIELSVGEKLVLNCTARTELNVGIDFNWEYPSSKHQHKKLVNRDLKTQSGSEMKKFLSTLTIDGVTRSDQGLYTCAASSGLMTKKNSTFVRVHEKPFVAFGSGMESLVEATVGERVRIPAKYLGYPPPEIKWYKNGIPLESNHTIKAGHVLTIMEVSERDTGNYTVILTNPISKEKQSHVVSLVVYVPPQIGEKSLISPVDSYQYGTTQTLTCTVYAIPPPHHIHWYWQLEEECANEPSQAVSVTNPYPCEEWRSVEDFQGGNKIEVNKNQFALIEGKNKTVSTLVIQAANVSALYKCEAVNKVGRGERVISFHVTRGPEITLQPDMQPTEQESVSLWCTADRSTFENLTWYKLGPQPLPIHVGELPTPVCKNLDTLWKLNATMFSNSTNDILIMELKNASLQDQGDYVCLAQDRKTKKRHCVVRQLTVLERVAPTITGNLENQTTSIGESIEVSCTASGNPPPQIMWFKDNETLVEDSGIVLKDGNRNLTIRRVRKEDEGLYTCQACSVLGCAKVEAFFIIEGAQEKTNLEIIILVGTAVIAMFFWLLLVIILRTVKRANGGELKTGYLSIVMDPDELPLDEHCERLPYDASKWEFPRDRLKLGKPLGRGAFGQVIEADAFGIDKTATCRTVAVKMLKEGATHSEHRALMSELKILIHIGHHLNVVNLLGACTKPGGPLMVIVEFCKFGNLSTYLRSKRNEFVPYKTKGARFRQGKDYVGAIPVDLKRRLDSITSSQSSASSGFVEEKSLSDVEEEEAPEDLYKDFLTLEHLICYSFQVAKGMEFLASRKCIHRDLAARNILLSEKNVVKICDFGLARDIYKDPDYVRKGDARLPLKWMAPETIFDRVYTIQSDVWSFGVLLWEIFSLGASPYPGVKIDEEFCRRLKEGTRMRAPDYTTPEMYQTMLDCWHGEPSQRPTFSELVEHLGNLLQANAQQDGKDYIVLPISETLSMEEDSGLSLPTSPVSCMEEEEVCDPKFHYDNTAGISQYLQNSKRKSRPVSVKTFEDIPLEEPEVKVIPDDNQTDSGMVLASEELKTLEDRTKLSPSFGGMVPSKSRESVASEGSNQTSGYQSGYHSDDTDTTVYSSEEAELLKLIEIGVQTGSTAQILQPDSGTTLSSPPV

SRPK1 (human) = SRPK1 (human) (UniProt Q96SB4)
Chain of SRPK1 (human) (Q96SB4 whole entry, looked up): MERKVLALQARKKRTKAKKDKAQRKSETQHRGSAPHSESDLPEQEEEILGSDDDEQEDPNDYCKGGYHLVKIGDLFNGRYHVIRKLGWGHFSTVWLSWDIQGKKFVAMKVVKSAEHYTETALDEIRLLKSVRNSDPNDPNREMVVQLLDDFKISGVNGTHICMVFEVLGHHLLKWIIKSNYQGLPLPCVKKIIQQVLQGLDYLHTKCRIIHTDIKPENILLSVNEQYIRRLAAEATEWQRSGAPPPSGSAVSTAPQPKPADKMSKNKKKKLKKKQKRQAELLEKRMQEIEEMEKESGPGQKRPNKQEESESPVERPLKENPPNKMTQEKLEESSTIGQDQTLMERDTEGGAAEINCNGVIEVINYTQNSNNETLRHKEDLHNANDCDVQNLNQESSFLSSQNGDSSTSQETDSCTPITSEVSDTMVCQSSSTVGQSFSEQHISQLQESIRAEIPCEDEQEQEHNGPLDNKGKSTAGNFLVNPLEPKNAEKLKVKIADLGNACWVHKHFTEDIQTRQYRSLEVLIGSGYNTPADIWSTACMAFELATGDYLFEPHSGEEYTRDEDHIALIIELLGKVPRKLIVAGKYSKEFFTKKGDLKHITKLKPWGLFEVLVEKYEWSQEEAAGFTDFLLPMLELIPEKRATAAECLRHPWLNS

DSTYK (human) = DSTYK (human) (UniProt Q6XUX3)
EPHB2 (human) = EPHB2 (human) (UniProt P29323)
TEK (human) = TEK (human) (UniProt Q02763)
MAP2K2 (human) = MAP2K2 (human) (UniProt P36507)
Chain of MAP2K2 (human) (P36507 whole entry, looked up): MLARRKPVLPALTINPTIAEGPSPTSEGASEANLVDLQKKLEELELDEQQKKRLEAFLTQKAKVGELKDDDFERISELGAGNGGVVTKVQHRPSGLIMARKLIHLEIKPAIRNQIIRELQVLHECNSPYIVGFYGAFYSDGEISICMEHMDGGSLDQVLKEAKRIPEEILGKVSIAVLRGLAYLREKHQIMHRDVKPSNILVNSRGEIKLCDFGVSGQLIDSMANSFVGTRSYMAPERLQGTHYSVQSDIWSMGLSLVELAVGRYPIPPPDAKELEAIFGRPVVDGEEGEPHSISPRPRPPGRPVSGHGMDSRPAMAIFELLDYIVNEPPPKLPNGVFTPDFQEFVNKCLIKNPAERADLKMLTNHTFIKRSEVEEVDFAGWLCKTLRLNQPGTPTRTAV

MAPK11 (human) = MAPK11 (human) (UniProt Q15759)
[1] = target: TYK2 JH1 catalytic (human) (UniProt P29597)
CDK5 CDK5R1 p25 (human) = CDK5 CDK5R1 p25 (human) (UniProt Q00535+Q15078)
GRK5 (human) = GRK5 (human) (UniProt P34947)
SLK (human) = SLK (human) (UniProt Q9H2G2)
ALK (human) = ALK (human) (UniProt Q9UM73)
PNCK (human) = PNCK (human) (UniProt Q6P2M8)
CAMK2A (human) = CAMK2A (human) (UniProt Q9UQM7)
NEK11 (human) = NEK11 (human) (UniProt Q8NG66)
CDK6 CCND3 (human) = CDK6 CCND3 (human) (UniProt P30281+Q00534)
GSK3A (human) = GSK3A (human) (UniProt P49840)
Chain of GSK3A (human) (P49840 whole entry, looked up): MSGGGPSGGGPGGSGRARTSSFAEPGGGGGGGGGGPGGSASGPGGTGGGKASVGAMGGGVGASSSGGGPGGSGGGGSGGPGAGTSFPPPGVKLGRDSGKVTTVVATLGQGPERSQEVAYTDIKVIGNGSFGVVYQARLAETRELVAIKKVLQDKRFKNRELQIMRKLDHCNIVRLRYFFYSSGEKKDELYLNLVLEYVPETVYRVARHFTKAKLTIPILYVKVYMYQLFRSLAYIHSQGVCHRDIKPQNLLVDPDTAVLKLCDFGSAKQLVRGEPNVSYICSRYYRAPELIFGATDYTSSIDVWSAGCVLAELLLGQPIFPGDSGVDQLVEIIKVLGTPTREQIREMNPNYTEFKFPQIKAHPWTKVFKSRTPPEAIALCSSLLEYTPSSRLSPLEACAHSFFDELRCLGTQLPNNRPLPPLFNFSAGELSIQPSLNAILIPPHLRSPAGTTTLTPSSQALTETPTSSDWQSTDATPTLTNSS

CDC42BPB (human) = CDC42BPB (human) (UniProt Q9Y5S2)
JAK2 JH1 JH2 (human) = JAK2 JH1 JH2 (human) (UniProt O60674)
PBK (human) = PBK (human) (UniProt Q96KB5)
NTRK3 (human) = NTRK3 (human) (UniProt Q16288)
FGFR3 (human) = FGFR3 (human) (UniProt P22607)
PRKG2 (human) = PRKG2 (human) (UniProt Q13237)
Chain of PRKG2 (human) (Q13237 whole entry, looked up): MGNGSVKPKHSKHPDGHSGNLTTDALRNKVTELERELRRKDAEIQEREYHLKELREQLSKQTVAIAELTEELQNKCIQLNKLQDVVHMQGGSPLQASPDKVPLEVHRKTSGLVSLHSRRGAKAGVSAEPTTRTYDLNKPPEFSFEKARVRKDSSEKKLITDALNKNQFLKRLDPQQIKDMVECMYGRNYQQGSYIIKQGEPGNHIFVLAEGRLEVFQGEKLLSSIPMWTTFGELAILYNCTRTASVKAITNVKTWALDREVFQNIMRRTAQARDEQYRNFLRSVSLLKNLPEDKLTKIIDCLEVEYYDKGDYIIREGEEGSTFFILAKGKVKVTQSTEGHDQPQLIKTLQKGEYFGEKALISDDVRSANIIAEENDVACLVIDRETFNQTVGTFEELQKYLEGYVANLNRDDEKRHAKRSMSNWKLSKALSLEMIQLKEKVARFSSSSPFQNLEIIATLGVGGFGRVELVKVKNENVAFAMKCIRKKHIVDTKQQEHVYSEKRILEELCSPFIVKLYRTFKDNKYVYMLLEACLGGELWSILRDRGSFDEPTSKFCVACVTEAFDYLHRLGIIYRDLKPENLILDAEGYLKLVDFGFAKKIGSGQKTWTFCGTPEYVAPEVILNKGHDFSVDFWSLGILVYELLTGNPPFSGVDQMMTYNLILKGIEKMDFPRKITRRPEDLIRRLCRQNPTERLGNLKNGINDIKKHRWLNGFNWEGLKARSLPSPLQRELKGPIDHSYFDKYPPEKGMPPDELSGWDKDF

RPS6KB2 (human) = RPS6KB2 (human) (UniProt Q9UBS0)

- residual activity (MAPKAPK2 (human)): 105%
- residual activity (FGFR2 (human)): 92.1%
- residual activity (PRKCI (human)): 92.2%
- residual activity (STK17A (human)): 46%
- residual activity (TXK (human)): 66.7%
- residual activity (IRAK4 (human)): 102%
- residual activity (CDK1 CCNB1 (human)): 68.7%
- residual activity (NEK4 (human)): 95%
- residual activity (PAK2 (human)): 96.7%
- residual activity (AKT1 (human)): 97.8%
- residual activity (FLT1 (human)): 73.6%
- residual activity (RPS6KA5 KD2 (human)): 67%
- residual activity (ABL2 (human)): 60.3%
- residual activity (AURKA (human)): 21.3%
- residual activity (EPHA8 (human)): 91.1%
- residual activity (DYRK1B (human)): 84.7%
- residual activity (BTK (human)): 59.3%
- residual activity (KDR (human)): 72.9%
- residual activity (SRPK1 (human)): 89.3%
- residual activity (DSTYK (human)): 108%
- residual activity (EPHB2 (human)): 83.3%
- residual activity (TEK (human)): 98.7%
- residual activity (MAP2K2 (human)): 100%
- residual activity (MAPK11 (human)): 92.9%
- residual activity [1]: 24.3%
- residual activity (CDK5 CDK5R1 p25 (human)): 28.7%
- residual activity (GRK5 (human)): 103%
- residual activity (SLK (human)): 78.7%
- residual activity (ALK (human)): 76.5%
- residual activity (PNCK (human)): 106%
- residual activity (CAMK2A (human)): 50.2%
- residual activity (NEK11 (human)): 98.2%
- residual activity (CDK6 CCND3 (human)): 26.1%
- residual activity (GSK3A (human)): 16.5%
- residual activity (CDC42BPB (human)): 99.5%
- residual activity (JAK2 JH1 JH2 (human)): 84.6%
- residual activity (PBK (human)): 89.5%
- residual activity (NTRK3 (human)): 2.17%
- residual activity (FGFR3 (human)): 70.4%
- residual activity (PRKG2 (human)): 67.3%
- residual activity (RPS6KB2 (human)): 107%
Structure (SMILES): O=C1Nc2ccccc2/C1=C1\Nc2ccccc2\C1=N/O
- residual activity (NEK9 (human)): 95.4%

Structure (SMILES): Cc1nc2cc3nc(-c4cccs4)cnc3cc2n1C
- residual activity (MAPKAPK2 (human)): 95.4%
- residual activity (FGFR2 (human)): 91.8%
- residual activity (PRKCI (human)): 99.1%
- residual activity (STK17A (human)): 80.5%
- residual activity (TXK (human)): 102%
- residual activity (IRAK4 (human)): 201%
- residual activity (CDK1 CCNB1 (human)): 96.7%
- residual activity (NEK4 (human)): 95.2%
- residual activity (PAK2 (human)): 102%
- residual activity (AKT1 (human)): 114%
- residual activity (FLT1 (human)): 93.6%
- residual activity (RPS6KA5 KD2 (human)): 109%
- residual activity (ABL2 (human)): 100%
- residual activity (NEK9 (human)): 105%
- residual activity (AURKA (human)): 84.8%
- residual activity (EPHA8 (human)): 100%
- residual activity (DYRK1B (human)): 102%
- residual activity (BTK (human)): 101%
- residual activity (KDR (human)): 77.4%
- residual activity (SRPK1 (human)): 107%
- residual activity (DSTYK (human)): 106%
- residual activity (EPHB2 (human)): 101%
- residual activity (TEK (human)): 96.6%
- residual activity (MAP2K2 (human)): 77.5%
- residual activity (MAPK11 (human)): 101%
- residual activity [1]: 102%
- residual activity (CDK5 CDK5R1 p25 (human)): 99.3%
- residual activity (GRK5 (human)): 108%
- residual activity (SLK (human)): 94.5%
- residual activity (ALK (human)): 99.8%
- residual activity (PNCK (human)): 102%
- residual activity (CAMK2A (human)): 105%
- residual activity (NEK11 (human)): 93.1%
- residual activity (CDK6 CCND3 (human)): 87.8%
- residual activity (GSK3A (human)): 94.1%
- residual activity (CDC42BPB (human)): 100%
- residual activity (JAK2 JH1 JH2 (human)): 106%
- residual activity (PBK (human)): 98.9%
- residual activity (NTRK3 (human)): 59.9%
- residual activity (FGFR3 (human)): 67.1%
- residual activity (PRKG2 (human)): 87.7%
- residual activity (RPS6KB2 (human)): 98%

Structure (SMILES): O=C1NC(=O)/C(=C\c2ccc3nccnc3c2)S1
- residual activity (MAPKAPK2 (human)): 97.7%
- residual activity (FGFR2 (human)): 95%
- residual activity (PRKCI (human)): 98.6%
- residual activity (STK17A (human)): 94.6%
- residual activity (TXK (human)): 96.8%
- residual activity (IRAK4 (human)): 99.9%
- residual activity (CDK1 CCNB1 (human)): 93.8%
- residual activity (NEK4 (human)): 93.1%
- residual activity (PAK2 (human)): 98.4%
- residual activity (AKT1 (human)): 98.3%
- residual activity (FLT1 (human)): 87.5%
- residual activity (RPS6KA5 KD2 (human)): 87.8%
- residual activity (ABL2 (human)): 96.8%
- residual activity (NEK9 (human)): 111%
- residual activity (AURKA (human)): 97.2%
- residual activity (EPHA8 (human)): 94.2%
- residual activity (DYRK1B (human)): 31.3%
- residual activity (BTK (human)): 104%
- residual activity (KDR (human)): 92.6%
- residual activity (SRPK1 (human)): 110%
- residual activity (DSTYK (human)): 89.9%
- residual activity (EPHB2 (human)): 94.7%
- residual activity (TEK (human)): 89.5%
- residual activity (MAP2K2 (human)): 93.5%
- residual activity (MAPK11 (human)): 99.2%
- residual activity [1]: 85.2%
- residual activity (CDK5 CDK5R1 p25 (human)): 83.2%
- residual activity (GRK5 (human)): 105%
- residual activity (SLK (human)): 96.3%
- residual activity (ALK (human)): 93.3%
- residual activity (PNCK (human)): 101%
- residual activity (CAMK2A (human)): 92.3%
- residual activity (NEK11 (human)): 111%
- residual activity (CDK6 CCND3 (human)): 95.8%
- residual activity (GSK3A (human)): 88.8%
- residual activity (CDC42BPB (human)): 91.3%
- residual activity (JAK2 JH1 JH2 (human)): 97.4%
- residual activity (PBK (human)): 93%
- residual activity (NTRK3 (human)): 95.3%
- residual activity (FGFR3 (human)): 97.3%
- residual activity (PRKG2 (human)): 106%
- residual activity (RPS6KB2 (human)): 94.7%
